Test results reported in patent US20230339865A1, “QUINAZOLINE-DERIVED HCK INHIBITORS FOR USE IN THE TREATMENT OF MYD88 MUTATED DISEASES” (Dana-Farber Cancer Institute, Inc., priority 2020, published 2023).
Each block holds one compound with its values, some of them ahead of it.

Legend:
[1] = microsome stability (mouse); type: in vitro ADME; details: microsomes, read-out: microsome stability (T1/2, min)
Experimental: (§1) The compounds were tested against several different cell lines, and the ED50 values determined, along with the microsome stability.

[2] = microsome stability (rat); type: in vitro ADME; details: microsomes, read-out: microsome stability (T1/2, min)
Experimental: as §1

[3] = microsome stability (human); type: in vitro ADME; details: microsomes, read-out: microsome stability (T1/2, min)
Experimental: as §1

MAP4K2 (GCK) = target: T1, MAP4K2 (GCK) (Homo sapiens, UniProt Q12851); assay: Invitrogen kinase assay MAP4K2 (GCK); type: biochemical
T1 construct: purchased Invitrogen
Experimental: (§2) The IC50 values were also determined for Compound (I-1) using an Invitrogen kinase assay. The results are shown in Table 2, along with comparison data with TL2-059.

LYN A = target: T2, LYN A (Homo sapiens, UniProt P07948); assay: Invitrogen kinase assay LYN A; type: biochemical
T2 construct: purchased Invitrogen
Experimental: as §2

[4] = target: T3, MAPK14 (p38 alpha) Direct (Homo sapiens, UniProt Q16539); assay: Invitrogen kinase assay MAPK14 (p38 alpha) Direct; type: biochemical
T3 construct: purchased Invitrogen
Experimental: as §2

FER = target: T4, FER (Homo sapiens, UniProt P16591); assay: Invitrogen kinase assay FER; type: biochemical
T4 construct: purchased Invitrogen
Experimental: as §2

MAP4K1 (HPK1) = target: T5, MAP4K1 (HPK1) (Homo sapiens, UniProt Q92918); assay: Invitrogen kinase assay MAP4K1 (HPK1); type: biochemical
T5 construct: purchased Invitrogen
Experimental: as §2

FES (FPS) = target: T6, FES (FPS) (Homo sapiens, UniProt P07332); assay: Invitrogen kinase assay FES (FPS); type: biochemical
T6 construct: purchased Invitrogen
Experimental: as §2

ABL1 = target: T7, ABL1 (Homo sapiens, UniProt P00519); assay: Invitrogen kinase assay ABL1; type: biochemical
T7 construct: purchased Invitrogen
Experimental: as §2

ABL2 (Arg) = target: T8, ABL2 (Arg) (Homo sapiens, UniProt P42684); assay: Invitrogen kinase assay ABL2 (Arg); type: biochemical
T8 construct: purchased Invitrogen
Experimental: as §2

[5] = target: T9, MAP3K7/MAP3K7IP1 (TAK1-TAB1) (Homo sapiens, UniProt O43318); assay: Invitrogen kinase assay MAP3K7/MAP3K7IP1 (TAK1-TAB1); type: biochemical
T9 construct: purchased Invitrogen
Experimental: as §2

SRC = target: T10, SRC (Homo sapiens, UniProt P12931); assay: Invitrogen kinase assay SRC; type: biochemical
T10 construct: purchased Invitrogen
Experimental: as §2

LCK = target: T11, LCK (Homo sapiens, UniProt P06239); assay: Invitrogen kinase assay LCK; type: biochemical
T11 construct: purchased Invitrogen
Experimental: as §2

TAOK3 (JIK) = target: T12, TAOK3 (JIK) (Homo sapiens, UniProt Q9H2K8); assay: Invitrogen kinase assay TAOK3 (JIK); type: biochemical
T12 construct: purchased Invitrogen
Experimental: as §2

FGR = target: T13, FGR (Homo sapiens, UniProt P09769); assay: Invitrogen kinase assay FGR; type: biochemical
T13 construct: purchased Invitrogen
Experimental: as §2

TAOK2 (TAO1) = target: T14, TAOK2 (TAO1) (Homo sapiens, UniProt Q9UL54); assay: Invitrogen kinase assay TAOK2 (TAO1); type: biochemical
T14 construct: purchased Invitrogen
Experimental: as §2

FYN = target: T15, FYN (Homo sapiens, UniProt P06241); assay: Invitrogen kinase assay FYN; type: biochemical
T15 construct: purchased Invitrogen
Experimental: as §2

TAOK1 = target: T16, TAOK1 (Homo sapiens, UniProt Q7L7X3); assay: Invitrogen kinase assay TAOK1; type: biochemical
T16 construct: purchased Invitrogen
Experimental: as §2

[6] = tested on: MYD88 mutated ABC DLBCL TMD8 xenograft; assay: In-vivo rat efficacy study in MYD88 mutated ABC DLBCL TMD8 xenografted rats
Experimental: Example 1. In-Vivo Rat Efficacy Study in MYD88 Mutated ABC DLBCL TMD8 Xenografted Rats
A rat efficacy study for was carried out with Compound (I-1) using an MYD88 mutated ABC DLBCL TMD8 xenografted rat model.

HCK, BTK, and NFκB = assay: Pharmacodynamic studies in mice; type: in vivo
HCK [7] = target: T17, HCK (Homo sapiens, UniProt P08631); assay: HCK inhibition in MYD88 mutated cells; type: cell-based; details: MYD88 mutated WM and ABC DLBCL cell lines and primary WM cells
[8] = tested on: MYD88 mutated WM and ABC DLBCL cell lines, primary WM cells; assay: Apoptotic effects in MYD88 mutated cells; type: cell-based; details: vs. ibrutinib or A419259
[9] = tested on: healthy donor B- and T-cells; assay: Effect on healthy donor B- and T-cells; type: cell-based
HCK [10] = target: T17, HCK; assay: Invitrogen kinase assay HCK; type: biochemical; parameters: purchased Invitrogen
Experimental: as §2

T17 sequence (P08631 whole entry): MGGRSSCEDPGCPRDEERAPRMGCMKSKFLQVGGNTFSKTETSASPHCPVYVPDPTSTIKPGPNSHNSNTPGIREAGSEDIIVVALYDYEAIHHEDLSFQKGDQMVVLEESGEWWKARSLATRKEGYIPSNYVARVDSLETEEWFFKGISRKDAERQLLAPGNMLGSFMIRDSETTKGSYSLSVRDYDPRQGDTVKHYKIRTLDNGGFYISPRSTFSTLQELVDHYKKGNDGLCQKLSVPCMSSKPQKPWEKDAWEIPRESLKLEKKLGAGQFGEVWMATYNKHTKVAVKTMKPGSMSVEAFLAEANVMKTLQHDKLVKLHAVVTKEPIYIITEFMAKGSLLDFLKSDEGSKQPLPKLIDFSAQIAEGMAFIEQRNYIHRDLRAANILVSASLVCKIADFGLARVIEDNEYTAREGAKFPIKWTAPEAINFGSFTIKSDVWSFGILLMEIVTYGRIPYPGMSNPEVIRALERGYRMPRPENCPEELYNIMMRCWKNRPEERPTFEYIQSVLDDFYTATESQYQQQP
T6 sequence (P07332 whole entry): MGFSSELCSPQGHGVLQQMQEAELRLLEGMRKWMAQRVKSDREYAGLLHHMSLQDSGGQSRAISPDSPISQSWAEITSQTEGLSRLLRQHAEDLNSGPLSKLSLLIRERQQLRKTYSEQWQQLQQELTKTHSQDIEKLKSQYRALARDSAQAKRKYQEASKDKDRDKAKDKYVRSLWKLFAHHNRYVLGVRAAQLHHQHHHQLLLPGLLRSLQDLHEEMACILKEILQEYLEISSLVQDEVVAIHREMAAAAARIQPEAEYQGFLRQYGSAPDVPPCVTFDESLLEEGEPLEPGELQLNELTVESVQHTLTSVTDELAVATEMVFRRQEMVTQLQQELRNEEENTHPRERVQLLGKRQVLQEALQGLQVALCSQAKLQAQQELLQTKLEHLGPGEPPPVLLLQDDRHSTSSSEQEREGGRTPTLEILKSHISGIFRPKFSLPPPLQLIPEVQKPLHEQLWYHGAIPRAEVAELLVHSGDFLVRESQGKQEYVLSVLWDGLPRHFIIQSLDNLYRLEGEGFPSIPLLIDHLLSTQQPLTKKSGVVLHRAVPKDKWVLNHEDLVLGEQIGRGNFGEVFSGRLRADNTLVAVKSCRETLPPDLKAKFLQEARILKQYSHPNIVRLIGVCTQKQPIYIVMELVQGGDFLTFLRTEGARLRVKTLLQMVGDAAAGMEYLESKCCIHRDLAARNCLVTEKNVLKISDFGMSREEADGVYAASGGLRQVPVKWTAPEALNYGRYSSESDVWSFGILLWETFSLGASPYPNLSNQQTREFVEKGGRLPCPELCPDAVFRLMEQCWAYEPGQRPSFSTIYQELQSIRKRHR
T3 sequence (Q16539 whole entry): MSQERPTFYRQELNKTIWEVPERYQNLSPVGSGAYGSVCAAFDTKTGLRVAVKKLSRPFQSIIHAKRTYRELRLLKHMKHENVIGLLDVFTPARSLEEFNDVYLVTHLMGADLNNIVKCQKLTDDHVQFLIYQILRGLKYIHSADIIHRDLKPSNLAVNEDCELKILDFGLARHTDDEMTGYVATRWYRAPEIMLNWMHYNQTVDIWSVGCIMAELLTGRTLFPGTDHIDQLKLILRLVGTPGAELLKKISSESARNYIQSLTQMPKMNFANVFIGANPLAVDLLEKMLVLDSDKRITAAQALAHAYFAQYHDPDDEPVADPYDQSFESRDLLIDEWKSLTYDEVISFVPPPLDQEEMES
T7 sequence (P00519 whole entry): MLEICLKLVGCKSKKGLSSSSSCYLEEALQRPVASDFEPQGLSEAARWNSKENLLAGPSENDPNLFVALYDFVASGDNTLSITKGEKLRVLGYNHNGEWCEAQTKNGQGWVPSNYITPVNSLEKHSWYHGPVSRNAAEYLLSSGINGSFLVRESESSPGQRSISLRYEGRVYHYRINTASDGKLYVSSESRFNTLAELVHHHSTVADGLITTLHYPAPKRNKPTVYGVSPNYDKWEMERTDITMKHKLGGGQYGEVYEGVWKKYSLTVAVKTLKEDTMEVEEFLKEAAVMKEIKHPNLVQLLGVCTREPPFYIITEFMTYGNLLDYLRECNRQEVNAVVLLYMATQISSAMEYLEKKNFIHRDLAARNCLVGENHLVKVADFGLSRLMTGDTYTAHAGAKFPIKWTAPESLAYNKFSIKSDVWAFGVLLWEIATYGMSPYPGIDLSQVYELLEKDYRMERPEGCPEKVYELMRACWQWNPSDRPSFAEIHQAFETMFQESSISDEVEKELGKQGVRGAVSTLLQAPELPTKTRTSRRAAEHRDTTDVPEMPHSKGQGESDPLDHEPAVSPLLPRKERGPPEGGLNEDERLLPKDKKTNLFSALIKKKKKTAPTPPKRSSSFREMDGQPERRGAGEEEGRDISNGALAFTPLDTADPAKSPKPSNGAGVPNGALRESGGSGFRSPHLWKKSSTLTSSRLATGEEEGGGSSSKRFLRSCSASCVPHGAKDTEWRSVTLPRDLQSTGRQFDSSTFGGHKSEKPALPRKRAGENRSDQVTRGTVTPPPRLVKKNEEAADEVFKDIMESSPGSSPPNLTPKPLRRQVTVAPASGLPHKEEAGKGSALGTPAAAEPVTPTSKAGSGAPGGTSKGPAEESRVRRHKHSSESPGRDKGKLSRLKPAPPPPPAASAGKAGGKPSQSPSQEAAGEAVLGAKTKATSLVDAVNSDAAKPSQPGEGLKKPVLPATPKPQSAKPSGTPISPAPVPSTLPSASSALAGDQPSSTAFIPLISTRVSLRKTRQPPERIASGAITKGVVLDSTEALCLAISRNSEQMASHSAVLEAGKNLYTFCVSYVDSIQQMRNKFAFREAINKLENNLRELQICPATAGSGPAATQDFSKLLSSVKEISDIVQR
T12 sequence (Q9H2K8 whole entry): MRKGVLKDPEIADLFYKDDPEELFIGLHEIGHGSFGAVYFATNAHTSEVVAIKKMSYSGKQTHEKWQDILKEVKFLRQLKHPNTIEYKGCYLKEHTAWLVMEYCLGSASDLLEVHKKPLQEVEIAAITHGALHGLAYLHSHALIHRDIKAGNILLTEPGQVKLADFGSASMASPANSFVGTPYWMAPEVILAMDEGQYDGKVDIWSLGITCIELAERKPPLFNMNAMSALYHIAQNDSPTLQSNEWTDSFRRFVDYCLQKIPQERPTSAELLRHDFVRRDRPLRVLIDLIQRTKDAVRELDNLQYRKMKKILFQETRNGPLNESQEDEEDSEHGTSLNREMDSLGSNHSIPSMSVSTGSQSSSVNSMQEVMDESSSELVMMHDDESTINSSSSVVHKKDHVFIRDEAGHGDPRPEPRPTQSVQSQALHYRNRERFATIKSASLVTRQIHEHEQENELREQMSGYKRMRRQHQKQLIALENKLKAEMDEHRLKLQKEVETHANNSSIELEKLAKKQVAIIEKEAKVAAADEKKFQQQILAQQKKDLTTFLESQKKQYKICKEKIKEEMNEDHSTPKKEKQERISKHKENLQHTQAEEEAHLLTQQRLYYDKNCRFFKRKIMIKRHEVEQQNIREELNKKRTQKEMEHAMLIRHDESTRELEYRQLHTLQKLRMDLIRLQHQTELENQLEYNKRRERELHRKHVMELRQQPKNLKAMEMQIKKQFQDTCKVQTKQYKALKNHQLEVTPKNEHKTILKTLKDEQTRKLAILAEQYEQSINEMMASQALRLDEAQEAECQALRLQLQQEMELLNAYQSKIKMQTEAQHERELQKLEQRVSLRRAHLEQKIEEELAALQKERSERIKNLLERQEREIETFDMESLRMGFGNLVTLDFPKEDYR
T1 sequence (Q12851 whole entry): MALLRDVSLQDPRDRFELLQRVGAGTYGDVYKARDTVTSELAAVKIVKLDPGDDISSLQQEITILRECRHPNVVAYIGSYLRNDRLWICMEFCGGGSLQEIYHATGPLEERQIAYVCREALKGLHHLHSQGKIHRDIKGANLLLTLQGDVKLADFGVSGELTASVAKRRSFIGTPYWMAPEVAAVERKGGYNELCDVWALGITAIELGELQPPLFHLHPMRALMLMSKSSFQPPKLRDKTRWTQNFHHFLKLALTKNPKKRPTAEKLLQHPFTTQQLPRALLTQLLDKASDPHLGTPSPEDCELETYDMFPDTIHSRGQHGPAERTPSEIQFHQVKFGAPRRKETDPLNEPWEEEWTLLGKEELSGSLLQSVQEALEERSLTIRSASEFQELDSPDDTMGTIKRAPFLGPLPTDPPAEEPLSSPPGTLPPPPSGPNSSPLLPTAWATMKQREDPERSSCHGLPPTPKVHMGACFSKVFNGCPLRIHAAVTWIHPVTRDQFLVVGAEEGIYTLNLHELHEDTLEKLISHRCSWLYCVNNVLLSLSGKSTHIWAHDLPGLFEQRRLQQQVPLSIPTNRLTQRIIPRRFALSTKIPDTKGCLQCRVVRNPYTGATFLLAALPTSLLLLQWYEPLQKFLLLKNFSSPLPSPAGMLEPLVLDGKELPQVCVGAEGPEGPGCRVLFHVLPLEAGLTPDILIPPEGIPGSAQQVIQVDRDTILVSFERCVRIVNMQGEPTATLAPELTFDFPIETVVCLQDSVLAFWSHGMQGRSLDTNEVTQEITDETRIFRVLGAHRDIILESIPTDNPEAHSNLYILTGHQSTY
T9 sequence (O43318 with tags, fused parts or gaps limits assumed): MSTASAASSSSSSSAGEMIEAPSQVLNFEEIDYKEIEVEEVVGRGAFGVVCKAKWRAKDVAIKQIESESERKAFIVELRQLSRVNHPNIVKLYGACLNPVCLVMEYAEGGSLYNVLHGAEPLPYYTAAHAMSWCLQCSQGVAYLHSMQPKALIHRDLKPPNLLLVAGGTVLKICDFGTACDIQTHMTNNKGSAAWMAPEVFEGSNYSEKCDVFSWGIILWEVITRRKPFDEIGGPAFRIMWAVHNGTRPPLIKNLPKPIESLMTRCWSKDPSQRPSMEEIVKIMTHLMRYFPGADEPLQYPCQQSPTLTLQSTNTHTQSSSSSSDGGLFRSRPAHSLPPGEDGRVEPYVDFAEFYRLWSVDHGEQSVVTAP

Compound: CCN1CCN(Cc2ccc(NC(=O)c3ccc(C)c(Oc4ncnc5cc(NC)c(OC)cc45)c3)cc2C(F)(F)F)CC1 [Compound (I-1), N-(4-((4-ethylpiperazin-1-yl)methyl)-3-(trifluoromethyl)phenyl)-3-(6-methoxy-7-(methylamino)quinazolin-4-yloxy)-4-methylbenzamide]
half-life [1]: 42.4 min
half-life [2]: 60.2 min
half-life [3]: 79.3 min
IC50 (MAP4K2 (GCK)): 8.35 nM
IC50 (LYN A): 8.77 nM
IC50 [4]: 79.7 nM
IC50 (FER): 9.81 nM
IC50 (MAP4K1 (HPK1)): 11.8 nM
IC50 (FES (FPS)): 11 nM
IC50 (ABL1): 32.3 nM
IC50 (ABL2 (Arg)): 45.5 nM
IC50 [5]: 24.1 nM
IC50 (SRC): 77.5 nM
IC50 (LCK): 4.73 nM
IC50 (TAOK3 (JIK)): 413 nM
IC50 (FGR): 8.02 nM
IC50 (TAOK2 (TAO1)): 61.3 nM
IC50 (FYN): 419 nM
IC50 (TAOK1): 194 nM
Mean tumor volume compared to vehicle ([6]; 30 mg/kg, TMD8 xenografted rat model): lower Mean tumor volume compared to vehicle
survival days ([6]; TMD8 xenograft model, vehicle 22 survival days): 43 days
Pharmacodynamic inhibition of HCK, BTK, and NFκB (HCK, BTK, and NFκB): inhibition of HCK, BTK, and NFκB
tumor redistribution (HCK, BTK, and NFκB): dose-related tumor redistribution
HCK inhibition (HCK [7]): inhibits HCK in a dose dependent Type II inhibition
apoptotic effects [8]: potent apoptotic effects
effect on healthy donor B- and T-cells [9]: sparing of healthy donor B- and T-cells
IC50 (HCK [10]): 7.39 nM

Compound: COc1cc2c(Oc3cc(C(=O)Nc4cccc(C(F)(F)F)c4)ccc3C)ncnc2cc1NCCN1CCN(C)CC1 [Compound (I-4), 3-(6-methoxy-7-(2-(4-methylpiperazin-1-yl)ethylamino)quinazolin-4-yloxy)-4-methyl-N-(3-(trifluoromethyl)phenyl)benzamide]
half-life [1]: 5.7 min

Compound: CCN1CCN(Cc2ccc(NC(=O)c3ccc(C)c(Oc4ncnc5cc(NC)ccc45)c3)cc2C(F)(F)F)CC1 [Compound (I-14), N-(4-((4-ethylpiperazin-1-yl)methyl)-3-(trifluoromethyl)phenyl)-4-methyl-3-(7-(methylamino)quinazolin-4-yloxy)benzamide]
half-life [1]: 20.4 min

Second part, the compound after the results:

half-life [1]: 41.7 min
Compound: CCN1CCN(Cc2ccc(NC(=O)c3ccc(C)c(Oc4ncnc5cc(N)c(OC)cc45)c3)cc2C(F)(F)F)CC1 [Compound (I-2), 3-(7-amino-6-methoxyquinazolin-4-yloxy)-N-(4-((4-ethylpiperazin-1-yl)methyl)-3-(trifluoromethyl)phenyl)-4-methylbenzamide]

half-life [1]: 8.6 min
Compound: CCN1CCN(Cc2ccc(NC(=O)c3ccc(C)c(Oc4ncnc5cc6[nH]cnc6cc45)c3)cc2C(F)(F)F)CC1 [Compound (I-16), 3-(3H-imidazo[4,5-g]quinazolin-8-yloxy)-N-(4-((4-ethylpiperazin-1-yl)methyl)-3-(trifluoromethyl)phenyl)-4-methylbenzamide]
